# According to patent US9744250B2, “Chemical model of a neurodegenerative disease, method for preparation and uses of same” (priority 2012, dated 2017):
# Tests used:
# caspase-9 = test: Caspase-9 activity (Ac-LEHD-AFC cleavage) in SH-SY5Y cells; type: cell-based, human; settings: 1 mM, 96 h
# Procedure: Measurement of the activities of the various caspases is based on the ability of the caspases to cleave specific fluorescent substrates: Ac-DEVD-AFC for caspase-3, Ac-IETD-AFC for caspase-8, or Ac-LEHD-AFC for caspase-9. SH-SY5Y neuronal cells were incubated in 48-well plates with either furosemide pyridinium (1 mM) for 96 h or with MPP+ (1 mM) for 6 h, then 24 h of incubation with no MPP+. After incubation, the cells were trypsinized, then rinsed with PBS and counted, then harvested in 100 μl of buffer containing 30 mM HEPES, 0.3 mM EDTA, 100 mM NaCl, 0.15% Triton X-100, and 10 mM DTT. The cell extract was then incubated for 1 hour at 37° C. with the specific substrate (100 μM) in a 96-well plate. Fluorescence was measured at λex400 nm and λem505 nm in a fluorescence detection plate reader (TECAN Infinite M1000) (Yue et al., supra). The results were expressed as percentages relative to the measured activity of cells cultured under the same conditions and not subjected to any treatment.
# [1] = test system: mitochondria isolated from rat striatum; test: Respiratory control (oxygen consumption) of isolated striatum mitochondria; type: biochemical
# Procedure: The animal was then decapitated in order to collect from the brain either the cortex or the striatum, which were quickly placed in a Potter Elvejhem® containing 6 ml of extraction buffer at 4° C. (250 mM sucrose, 40 mM KCl, 2 mM EGTA, lmg/ml BSA, 20 mM Tris, pH=7.2). This mixture was homogenized to break open the cells and release the mitochondria and then centrifuged at 2000 g for 8 minutes to remove the larger membrane debris and the nuclei from the pellet. The supernatant was then recovered and centrifuged at 13,000 g for 11 minutes. The supernatant was discarded while the pellet containing a mitochondria-rich fraction was resuspended in 500 μl of respiration buffer at 4° C. (300 mM D-mannitol, 10 mM KCl, 10 mM KH2PO4, 5 mM MgCl2, pH=7.2). […]
# Added to the polarography chamber (Hansatech) were 30 μl of mitochondria solution (0.2 mg), 460 μL of respiration buffer, 5 μl of test compound solution (meaning MPP+ or furosemide pyridinium) (or its solubilizing solvent). […] The effect of the compound on respiratory control was evaluated (ratio of stage 3 to 4), which corresponds to the coupling of the respiratory chain, or in other words the ATP synthesis at complex V and the oxygen consumption due to complexes I to IV. The results are expressed as percentages of the value measured for mitochondria not treated with the test compound (but treated with the solubilizing solvent).
# [2] = test system: alpha-synuclein in the striata; test: Immunolabeling of alpha-synuclein in coronal striatum sections of exposed rats; type: in vivo, rat; settings: 20 mg/kg/day oral 7 days, sacrificed 5 weeks after last dose
# From the text: (§1) Male albino Sprague Dawley rats (adults weighing […]) were housed in a temperature-controlled room with free access to food and water.
# A platform for electrophysiological and behavioral monitoring of the rats was used. For this, a subcutaneous implant (Data Science) was placed in the rats which allowed the EEG to be recorded by telemetry, leaving the animal completely free to move about. The cage was equipped with a video camera (10 frames per second) and an infrared light to allow recordation of the animal's activity. The EEG and video sequences were recorded in sequences of 10 seconds, and a set of variables was calculated for each sequence. The use of dedicated software allowed integration of these variables over the entire recording to detect changes in the animal's activity, EEG, and circadian rhythms. Each animal served as its own control because it was recorded for 5 days prior to furosemide pyridinium administration. The solution of furosemide pyridinium (20 mg) was dissolved in dimethylsulfoxide (DMSO, 200 μl) and then diluted with water (50 ml). The solution was replaced every day and administered for 7 days in the drinking water at a dose of 20 mg/kg. The rats were then sacrificed 5 weeks after the last dose. The rats were anesthetized with pentobarbital and infused intracardially with saline ([…]), then fixed with 4% paraformaldehyde. […]
# Sprague Dawley rats = test: EEG and sleep/arousal telemetry monitoring of exposed rats; type: in vivo, rat; settings: 20 mg/kg/day oral 7 days
# From the text: as §1
# A platform for electrophysiological and behavioral monitoring of the rats was used. For this, a subcutaneous implant (Data Science) was placed in the rats which allowed the EEG to be recorded by telemetry, leaving the animal completely free to move about. The cage was equipped with a video camera (10 frames per second) and an infrared light to allow recordation of the animal's activity. The EEG and video sequences were recorded in sequences of 10 seconds, and a set of variables was calculated for each sequence. The use of dedicated software allowed integration of these variables over the entire recording to detect changes in the animal's activity, EEG, and circadian rhythms. Each animal served as its own control because it was recorded for 5 days prior to furosemide pyridinium administration. The solution of furosemide pyridinium (20 mg) was dissolved in dimethylsulfoxide (DMSO, 200 μl) and then diluted with water (50 ml). The solution was replaced every day and administered for 7 days in the drinking water at a dose of 20 mg/kg. The rats were then sacrificed 5 weeks after the last dose. The rats were anesthetized with pentobarbital and infused intracardially with saline ([…]), then fixed with 4% paraformaldehyde. After the infusion, the brain was removed and placed in NaCl (0.9%) at 4° C. The brain was frozen in Tissue Tek immersed in a cold isopentane bath. Coronal sections of eight microns were obtained using a cryostat and were processed for immunocytochemistry (labeling the alpha-synuclein).
# [3] = test system: α-synuclein phosphorylated at serine 129; test: Immunohistochemistry of Ser129-phosphorylated alpha-synuclein in exposed mice; type: in vivo, mouse; settings: 20 mg/kg/day oral 7 days, 30 days after end of exposure
# Procedure: Swiss mice were divided into two groups of five animals (experimental and control). The experiments were performed independently two times. The mice of the experimental group were exposed to furosemide pyridinium for 7 days at a daily dose of 20 mg/kg. The furosemide pyridinium was administered orally in the drinking water. The mice were sacrificed 30 days after the end of the furosemide pyridinium treatment.
# For this, the mice were anesthetized with pentobarbital (50 mg/Kg), then an intracardiac infusion of NaCl (0.9%) was administered, followed by fixation by an infusion of 4% paraformaldehyde in 0.1M phosphate buffer, pH 7.2. The brain was removed, placed in NaCl (0.9%) at 4° C., and frozen in Tissue Tek immersed in a cold isopentane bath. Coronal sections of eight microns were obtained using a cryostat and were processed for immunohistochemistry (labeling the tyrosine hydroxylase and the Ser129-phosphorylated alpha-synuclein).
smiles,measurement,setting,value
"NS(=O)(=O)c1cc(C(=O)[O-])c(-[n+]2cccc(O)c2)cc1Cl [furosemide pyridinium, 4-chloro-2-(3-hydroxypyridinium-1-yl)-5-sulfamoylbenzoate]",enzymatic activity of caspase-9 compared to untreated cells,caspase-9,170%
same,effect on striatal mitochondria versus cortex mitochondria,[1]; comparison striatum vs cortex,greater on striatal mitochondria
same,oxygen consumption of striatum mitochondria,[1]; dose-response,decrease in oxygen consumption
same,alpha-synuclein in the striata (immunolabeling),[2],significant increase
same,increase in number of REM sleep phases,Sprague Dawley rats; five weeks after end of exposure,2 ×
same,sleep and arousal phases,Sprague Dawley rats; five weeks after end of treatment,do not indicate changes
same,amplitude of the electroencephalogram,Sprague Dawley rats; five weeks after end of treatment vs before exposure,significant decrease
same,α-synuclein phosphorylated at serine 129 in the cortexes,[3]; cortex,no increase
same,α-synuclein phosphorylated at serine 129 in the striata,[3]; striatum,sharp increase
